Test results as given in patent publication US9944639B2, “Quinolizinone derivatives as PI3K inhibitors” (Lupin Limited, priority 2014, dated 2018).

Target: T1, PI3Kδ (Homo sapiens, UniProt O00329)
T1 construct: endogenous in cells; host or cells: Raji cells
Test: Cell Based Assay for PI3Kδ (AKT phosphorylation, AlphaScreen SureFire, anti-IgM stimulated Raji cells)
Details: compounds 1 h, anti-IgM (3 μg/mL) 30 min, phosphorylation of AKT, read-out: PI3Kδ inhibition IC50
Procedure: [formula] C) Cell Based Assay for PI3Kδ
Raji cells were maintained in RPMI-1640 (Sigma) supplemented with 10% fetal bovine serum (heat inactivated) (FBS, Sigma), 100 U penicillin/mL, and […] streptomycin and incubated at 37° C. and 5% CO2. Cells were centrifuged and resuspended in a complete medium. The required numbers of cells were transferred to a tissue culture flask containing medium without serum for 1 h at 37° C., 5% CO2. Following 1 h serum starvation, cells were centrifuged and resuspended in Hank's Balanced Salt Solution (HBSS, Sigma) and seeded in at a density of 1 million cells/well in 96-well clear bottom plates. The cells were treated with test compounds for 1 h at 37° C., 5% CO2. Cells were then stimulated with anti-IgM (3 μg/mL) for 30 min. After Stimulation, cells were lysed with 15 μL of 5× lysis buffer and the plate was shaken on an orbital plate shaker at approximately 300 rpm for 10 min. AlphaScreen® SureFire® Cell-based Assay (Perkin-Elmer, Waltham, Mass., USA) was performed to measure phosphorylation of AKT, in the cells according to the manufacturer's instructions. The luminescence was measured using an alpha technology-compatible plate reader BMG Labtech, Germany) at 520-620 nm. Percentage inhibition was calculated according to formula: […]
IC50 values were calculated by plotting % inhibition against the respective concentrations of test compounds using GraphPad Prism 5.

T1 sequence (O00329 whole entry): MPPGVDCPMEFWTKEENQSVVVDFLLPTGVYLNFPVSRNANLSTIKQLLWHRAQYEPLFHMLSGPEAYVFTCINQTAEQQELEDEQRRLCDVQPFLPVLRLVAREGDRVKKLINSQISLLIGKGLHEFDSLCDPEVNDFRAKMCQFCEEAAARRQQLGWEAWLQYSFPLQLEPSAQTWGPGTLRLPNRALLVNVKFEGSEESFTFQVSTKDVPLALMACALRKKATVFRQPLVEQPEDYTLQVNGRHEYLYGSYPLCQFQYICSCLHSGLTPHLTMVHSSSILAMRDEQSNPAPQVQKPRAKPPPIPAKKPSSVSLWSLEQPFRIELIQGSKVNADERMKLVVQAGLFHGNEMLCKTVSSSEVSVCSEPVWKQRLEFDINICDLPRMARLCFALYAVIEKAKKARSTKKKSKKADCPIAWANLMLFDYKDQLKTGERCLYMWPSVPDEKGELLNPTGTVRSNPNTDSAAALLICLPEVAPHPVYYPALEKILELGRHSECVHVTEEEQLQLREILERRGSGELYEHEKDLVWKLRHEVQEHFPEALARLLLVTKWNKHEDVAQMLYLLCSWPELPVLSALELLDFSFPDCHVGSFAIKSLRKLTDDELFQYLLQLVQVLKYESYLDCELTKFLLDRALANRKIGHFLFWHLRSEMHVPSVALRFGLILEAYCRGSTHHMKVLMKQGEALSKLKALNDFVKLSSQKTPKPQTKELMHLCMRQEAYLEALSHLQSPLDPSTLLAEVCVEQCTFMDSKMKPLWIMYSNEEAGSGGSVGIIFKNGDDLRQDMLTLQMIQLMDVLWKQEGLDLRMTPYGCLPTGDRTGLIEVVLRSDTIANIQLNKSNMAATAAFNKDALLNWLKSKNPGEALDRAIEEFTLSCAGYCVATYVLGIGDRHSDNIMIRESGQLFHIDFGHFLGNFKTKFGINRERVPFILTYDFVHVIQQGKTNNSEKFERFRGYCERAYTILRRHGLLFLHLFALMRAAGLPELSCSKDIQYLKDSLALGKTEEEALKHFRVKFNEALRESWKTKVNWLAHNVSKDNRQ
T1 sequence (P27986 whole entry partner): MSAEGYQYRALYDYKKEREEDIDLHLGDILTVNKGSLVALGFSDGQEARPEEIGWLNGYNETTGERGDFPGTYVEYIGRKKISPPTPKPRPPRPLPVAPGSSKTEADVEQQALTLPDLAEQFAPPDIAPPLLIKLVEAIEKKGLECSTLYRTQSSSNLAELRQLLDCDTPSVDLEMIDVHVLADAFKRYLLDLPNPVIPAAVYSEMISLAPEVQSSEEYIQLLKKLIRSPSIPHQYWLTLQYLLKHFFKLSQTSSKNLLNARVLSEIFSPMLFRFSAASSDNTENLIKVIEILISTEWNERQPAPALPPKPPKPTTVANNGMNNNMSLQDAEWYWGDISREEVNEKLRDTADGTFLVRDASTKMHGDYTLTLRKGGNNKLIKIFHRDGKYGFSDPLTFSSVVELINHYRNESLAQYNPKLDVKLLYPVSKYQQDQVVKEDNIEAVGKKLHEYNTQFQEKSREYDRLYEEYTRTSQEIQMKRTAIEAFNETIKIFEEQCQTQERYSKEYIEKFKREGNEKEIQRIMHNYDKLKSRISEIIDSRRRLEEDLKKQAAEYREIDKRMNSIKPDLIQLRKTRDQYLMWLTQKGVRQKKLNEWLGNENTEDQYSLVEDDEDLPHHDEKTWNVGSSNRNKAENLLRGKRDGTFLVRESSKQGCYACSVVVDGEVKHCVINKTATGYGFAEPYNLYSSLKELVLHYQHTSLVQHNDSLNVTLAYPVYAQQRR

| IC50 [nM] | SMILES |
| --- | --- |
| 11 to 50 | CC(c1cc2ccc(F)cn2c(=O)c1-c1ccccc1)n1nc(-c2ccc(O)c(F)c2)c2c(N)ncnc21 (centres unmarked) [Compound 60, 2-(1-(4-amino-3-(3-fluoro-4-hydroxyphenyl)-1H-pyrazolo[3,4-d]pyrimidin-1-yl)ethyl)-7-fluoro-3-phenyl-4H-quinolizin-4-one] |
| 0.1 to 10 | Cc1cccc2cc([C@H](C)Nc3nc(N)nc4[nH]cnc34)c(-c3ccccc3)c(=O)n12 (single isomer, unassigned) [Compound 8a, 2-(1-((2-Amino-9H-purin-6-yl)amino)ethyl)-6-methyl-3-phenyl-4H-quinolizin-4-one] |
| 0.1 to 10 | C[C@H](Nc1ncnc2cccnc12)c1cc2ccc(F)cn2c(=O)c1-c1ccccc1 [Compound 54, (S)-7-fluoro-3-phenyl-2-(1-(pyrido[3,2-d]pyrimidin-4-ylamino)ethyl)-4H-quinolizin-4-one] |
| 0.1 to 10 | C[C@H](Nc1nc(N)nc2[nH]cnc12)c1cc2ccc(F)cn2c(=O)c1-c1ccccc1 [Compound 33, (S)-2-(1-((2-amino-9H-purin-6-yl)amino)ethyl)-7-fluoro-3-phenyl-4H-quinolizin-4-one] |
| 0.1 to 10 | COc1ncc(-c2nn([C@@H](C)c3cc4ccc(F)cn4c(=O)c3-c3ccccc3)c3ncnc(N)c23)cc1NS(C)(=O)=O (single isomer, unassigned) [Compound 67a, N-(5-(4-amino-1-(1-(7-fluoro-4-oxo-3-phenyl-4H-quinolizin-2-yl)ethyl)-1H-pyrazolo[3,4-d]pyrimidin-3-yl)-2-methoxypyridin-3-yl)methanesulfonamide] |
| 0.1 to 10 | Cc1cccc2cc([C@H](C)Nc3nc(N)nc4[nH]cnc34)c(-c3cccc(F)c3)c(=O)n12 (single isomer, unassigned) [Compound 12a, 2-(1-((2-Amino-9H-purin-6-yl)amino)ethyl)-3-(3-fluorophenyl)-6-methyl-4H-quinolizin-4-one] |
| 0.1 to 10 | CC(c1cc2ccc(F)cn2c(=O)c1-c1ccccc1)n1nc(-c2ccc(F)c(O)c2)c2c(N)ncnc21 (centres unmarked) [Compound 61, 2-(1-(4-amino-3-(4-fluoro-3-hydroxyphenyl)-1H-pyrazolo[3,4-d]pyrimidin-1-yl)ethyl)-7-fluoro-3-phenyl-4H-quinolizin-4-one] |
| 51 to 250 | CC(c1cc2ccc(F)cn2c(=O)c1-c1ccccc1)n1nc(-c2ccc3c(c2)CC(=O)N3)c2c(N)ncnc21 (centres unmarked) [Compound 65, 2-(1-(4-amino-3-(2-oxoindolin-5-yl)-1H-pyrazolo[3,4-d]pyrimidin-1-yl)ethyl)-7-fluoro-3-phenyl-4H-quinolizin-4-one] |
| 0.1 to 10 | Cc1cccc2cc([C@H](C)Nc3ncnc(N)c3C#N)c(-c3cc(F)cc(F)c3)c(=O)n12 (single isomer, unassigned) [Compound 17a, 4-Amino-6-((1-(3-(3,5-difluorophenyl)-6-methyl-4-oxo-4H-quinolizin-2-yl)ethyl)amino)pyrimidine-5-carbonitrile] |
| 0.1 to 10 | Cc1cccc2cc([C@H](C)Nc3ncnc(N)c3C#N)c(-c3cccc(F)c3)c(=O)n12 (single isomer, unassigned) [Compound 10a, 4-Amino-6-((1-(3-(3-fluorophenyl)-6-methyl-4-oxo-4H-quinolizin-2-yl)ethyl)amino)pyrimidine-5-carbonitrile] |
| 0.1 to 10 | C[C@H](Nc1ncnc2[nH]cc(C#N)c12)c1cc2ccc(F)cn2c(=O)c1-c1ccccc1 [Compound 28, (S)-4-((1-(7-fluoro-4-oxo-3-phenyl-4H-quinolizin-2-yl)ethyl)amino)-7H-pyrrolo[2,3-d]pyrimidine-5-carbonitrile] |
| 11 to 50 | C[C@H](Nc1nc(N)nc2[nH]cnc12)c1cc2ccc(F)cn2c(=O)c1-c1cccc(F)c1 (single isomer, unassigned) [Compound 15a, 2-(1-((2-Amino-9H-purin-6-yl)amino)ethyl)-7-fluoro-3-(3-fluorophenyl)-4H-quinolizin-4-one] |
| 11 to 50 | C[C@H](Nc1ncnc(N)c1C#N)c1cc2ccccn2c(=O)c1-c1ccccc1 (single isomer, unassigned) [Compound 4a, 4-Amino-6-((1-(4-oxo-3-phenyl-4H-quinolizin-2-yl)ethyl)amino)pyrimidine-5-carbonitrile] |
| 11 to 50 | C[C@H](Nc1ncnc2[nH]cnc12)c1cc2ccc(F)cn2c(=O)c1-c1cc(F)cc(F)c1 [Compound 50, (S)-2-(1-((9H-purin-6-yl)amino)ethyl)-3-(3,5-difluorophenyl)-7-fluoro-4H-quinolizin-4-one] |
| 0.1 to 10 | CC[C@H](Nc1nc(N)nc(N)c1C#N)c1cc2ccc(F)cn2c(=O)c1-c1cccc(F)c1 (single isomer, unassigned) [Compound 45a, 2,4-diamino-6-((1-(7-fluoro-3-(3-fluorophenyl)-4-oxo-4H-quinolizin-2-yl)propyl)amino)pyrimidine-5-carbonitrile] |
| 0.1 to 10 | CC[C@H](Nc1nc(N)nc(N)c1C#N)c1cc2ccc(F)cn2c(=O)c1-c1ccccc1 (single isomer, unassigned) [Compound 42a, 2,4-diamino-6-((1-(7-fluoro-4-oxo-3-phenyl-4H-quinolizin-2-yl)propyl)amino)pyrimidine-5-carbonitrile] |
| 11 to 50 | Cc1cc(F)cc(-c2c([C@H](C)Nc3ncnc(N)c3C#N)cc3ccc(F)cn3c2=O)c1 [Compound 29, (S)-4-amino-6-((1-(7-fluoro-3-(3-fluoro-5-methylphenyl)-4-oxo-4H-quinolizin-2-yl)ethyl)amino)pyrimidine-5-carbonitrile] |
| 0.1 to 10 | C[C@H](Nc1ncnc(N)c1C#N)c1cc2ccc(F)cn2c(=O)c1-c1cc(F)cc(F)c1 [Compound 48, (S)-4-amino-6-((1-(3-(3,5-difluorophenyl)-7-fluoro-4-oxo-4H-quinolizin-2-yl)ethyl)amino)pyrimidine-5-carbonitrile] |
| 0.1 to 10 | C[C@H](Nc1ncnc2scnc12)c1cc2ccc(F)cn2c(=O)c1-c1ccccc1 [Compound 52, (S)-7-fluoro-3-phenyl-2-(1-(thiazolo[5,4-d]pyrimidin-7-ylamino)ethyl)-4H-quinolizin-4-one] |
| 11 to 50 | CC[C@H](Nc1ncnc(N)c1C#N)c1cc2ccc(F)cn2c(=O)c1-c1ccccc1 (single isomer, unassigned) [Compound 41a, 4-Amino-6-((1-(7-fluoro-4-oxo-3-phenyl-4H-quinolizin-2-yl)propyl)amino)pyrimidine-5-carbonitrile] |
